Conditions in all cases: Compound concentration 1000.0 nM
Experiment [1] deals with Tyrosine-protein kinase ABL1 (Homo sapiens), P00519 [F317L].
Experiment [2] relates to Receptor-type tyrosine-protein kinase FLT3 (Homo sapiens), P36888 [D835V].
Experiment [3] deals with Insulin receptor-related protein (Homo sapiens) (UniProt P14616).
Experiment [4] has as its target T1, Mitogen-activated protein kinase kinase kinase 2 (Homo sapiens) (UniProt Q9Y2U5).
T1 sequence (whole entry): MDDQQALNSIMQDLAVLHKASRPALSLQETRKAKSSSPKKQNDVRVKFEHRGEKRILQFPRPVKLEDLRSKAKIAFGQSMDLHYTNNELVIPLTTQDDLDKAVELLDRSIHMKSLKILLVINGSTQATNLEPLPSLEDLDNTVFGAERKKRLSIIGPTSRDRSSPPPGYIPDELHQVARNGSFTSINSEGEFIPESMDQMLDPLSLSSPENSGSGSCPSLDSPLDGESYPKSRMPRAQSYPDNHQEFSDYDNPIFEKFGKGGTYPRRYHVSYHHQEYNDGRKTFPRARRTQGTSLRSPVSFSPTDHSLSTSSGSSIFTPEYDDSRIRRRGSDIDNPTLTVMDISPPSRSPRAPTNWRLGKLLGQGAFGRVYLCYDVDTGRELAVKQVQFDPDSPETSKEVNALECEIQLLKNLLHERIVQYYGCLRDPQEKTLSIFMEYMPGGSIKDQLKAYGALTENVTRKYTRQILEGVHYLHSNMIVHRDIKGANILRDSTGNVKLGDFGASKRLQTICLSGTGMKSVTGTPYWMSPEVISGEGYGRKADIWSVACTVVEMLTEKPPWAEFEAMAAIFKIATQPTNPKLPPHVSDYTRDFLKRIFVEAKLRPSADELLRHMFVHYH

The target of experiment [5] is T2, MAP/microtubule affinity-regulating kinase 4 (Homo sapiens) (UniProt Q96L34).
T2 sequence (whole entry): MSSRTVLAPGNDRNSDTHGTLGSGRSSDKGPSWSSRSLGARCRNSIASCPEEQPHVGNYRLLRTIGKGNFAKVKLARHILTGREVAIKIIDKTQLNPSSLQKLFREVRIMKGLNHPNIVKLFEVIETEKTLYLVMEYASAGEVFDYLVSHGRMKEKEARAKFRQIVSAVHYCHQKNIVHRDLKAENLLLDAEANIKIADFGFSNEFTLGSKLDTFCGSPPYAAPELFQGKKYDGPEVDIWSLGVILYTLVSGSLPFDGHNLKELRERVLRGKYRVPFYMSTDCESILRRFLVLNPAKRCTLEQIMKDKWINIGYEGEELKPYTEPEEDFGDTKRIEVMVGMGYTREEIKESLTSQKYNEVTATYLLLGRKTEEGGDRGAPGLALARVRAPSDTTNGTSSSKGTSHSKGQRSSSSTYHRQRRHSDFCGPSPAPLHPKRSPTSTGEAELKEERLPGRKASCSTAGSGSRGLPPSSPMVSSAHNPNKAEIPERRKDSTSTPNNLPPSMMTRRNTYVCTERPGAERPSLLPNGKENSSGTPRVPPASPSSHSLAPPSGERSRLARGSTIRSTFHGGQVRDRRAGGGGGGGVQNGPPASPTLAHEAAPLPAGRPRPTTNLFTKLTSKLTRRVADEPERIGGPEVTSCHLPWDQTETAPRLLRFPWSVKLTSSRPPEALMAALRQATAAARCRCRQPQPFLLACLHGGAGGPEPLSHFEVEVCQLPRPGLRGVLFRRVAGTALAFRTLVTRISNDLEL

Experiment [6] addresses Hepatocyte growth factor receptor (Homo sapiens) (UniProt P08581).
The target in experiment [7] is Serine/threonine-protein kinase PknB (Mycobacterium tuberculosis) (UniProt P9WI81).
The target of experiment [8] is T3, cGMP-dependent protein kinase 1 (Homo sapiens) (UniProt Q13976).
T3 sequence (whole entry): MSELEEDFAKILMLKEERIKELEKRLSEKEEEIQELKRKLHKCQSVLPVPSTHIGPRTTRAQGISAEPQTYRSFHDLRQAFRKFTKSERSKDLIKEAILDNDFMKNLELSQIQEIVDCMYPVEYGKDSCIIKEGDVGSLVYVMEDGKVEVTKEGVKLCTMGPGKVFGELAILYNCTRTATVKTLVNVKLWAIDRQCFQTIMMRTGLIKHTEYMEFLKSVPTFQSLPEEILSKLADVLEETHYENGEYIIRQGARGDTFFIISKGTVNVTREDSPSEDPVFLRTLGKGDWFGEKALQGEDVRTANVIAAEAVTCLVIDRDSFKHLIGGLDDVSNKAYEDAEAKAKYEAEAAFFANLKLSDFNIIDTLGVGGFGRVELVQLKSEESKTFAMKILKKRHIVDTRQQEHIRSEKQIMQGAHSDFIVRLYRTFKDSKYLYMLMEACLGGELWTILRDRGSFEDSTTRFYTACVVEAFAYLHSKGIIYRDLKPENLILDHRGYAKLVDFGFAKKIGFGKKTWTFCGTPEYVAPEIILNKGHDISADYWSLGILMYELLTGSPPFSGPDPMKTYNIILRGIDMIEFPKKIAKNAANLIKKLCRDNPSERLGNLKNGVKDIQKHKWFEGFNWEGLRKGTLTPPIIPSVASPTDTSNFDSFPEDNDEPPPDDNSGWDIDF

Experiment [9] concerns the target Serine/threonine-protein kinase RIO3 (Homo sapiens) (UniProt O14730).
Experiment [10] addresses Vascular endothelial growth factor receptor 2 (Homo sapiens) (UniProt P35968).

Data on two molecules can be found in ChEMBL document CHEMBL4507276 (2021).

The structures appear in SMILES notation.

Vascular endothelial growth factor receptor 2 (Homo sapiens), sequence (P35968 whole entry): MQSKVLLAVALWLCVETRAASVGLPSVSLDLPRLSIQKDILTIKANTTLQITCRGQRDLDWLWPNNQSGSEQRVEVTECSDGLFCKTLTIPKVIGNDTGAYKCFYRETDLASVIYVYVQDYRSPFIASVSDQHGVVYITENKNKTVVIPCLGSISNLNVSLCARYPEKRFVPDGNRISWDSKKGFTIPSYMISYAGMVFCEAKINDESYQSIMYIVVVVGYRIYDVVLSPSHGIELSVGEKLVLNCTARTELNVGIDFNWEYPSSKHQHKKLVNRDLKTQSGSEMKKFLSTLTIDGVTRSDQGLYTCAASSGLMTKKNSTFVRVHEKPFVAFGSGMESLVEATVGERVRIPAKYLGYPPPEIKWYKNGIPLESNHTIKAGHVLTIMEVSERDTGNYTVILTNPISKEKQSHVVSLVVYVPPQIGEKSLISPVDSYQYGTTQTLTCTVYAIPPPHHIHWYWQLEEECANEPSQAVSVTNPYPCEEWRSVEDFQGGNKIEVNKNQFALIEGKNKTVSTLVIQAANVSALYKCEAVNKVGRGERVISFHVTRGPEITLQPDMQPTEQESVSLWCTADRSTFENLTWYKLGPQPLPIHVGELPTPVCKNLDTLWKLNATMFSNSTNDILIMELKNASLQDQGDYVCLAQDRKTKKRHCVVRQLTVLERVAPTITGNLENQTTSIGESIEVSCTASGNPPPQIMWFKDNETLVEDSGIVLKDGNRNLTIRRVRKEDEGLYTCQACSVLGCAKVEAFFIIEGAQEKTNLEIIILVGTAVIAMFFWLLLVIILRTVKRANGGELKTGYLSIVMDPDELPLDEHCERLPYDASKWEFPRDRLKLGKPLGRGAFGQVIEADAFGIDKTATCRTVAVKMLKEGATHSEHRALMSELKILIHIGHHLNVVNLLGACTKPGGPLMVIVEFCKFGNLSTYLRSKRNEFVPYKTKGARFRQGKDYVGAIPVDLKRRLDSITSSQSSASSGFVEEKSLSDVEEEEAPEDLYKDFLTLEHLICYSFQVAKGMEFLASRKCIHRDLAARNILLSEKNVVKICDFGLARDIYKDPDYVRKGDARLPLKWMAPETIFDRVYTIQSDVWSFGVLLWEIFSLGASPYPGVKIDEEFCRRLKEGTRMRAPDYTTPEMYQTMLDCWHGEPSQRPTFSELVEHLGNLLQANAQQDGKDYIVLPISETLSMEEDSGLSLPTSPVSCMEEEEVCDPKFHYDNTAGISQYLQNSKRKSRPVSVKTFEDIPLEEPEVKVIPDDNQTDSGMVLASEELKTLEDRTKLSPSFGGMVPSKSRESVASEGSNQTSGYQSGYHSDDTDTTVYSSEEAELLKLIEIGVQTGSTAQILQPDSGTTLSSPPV
Hepatocyte growth factor receptor (Homo sapiens), sequence (P08581 whole entry): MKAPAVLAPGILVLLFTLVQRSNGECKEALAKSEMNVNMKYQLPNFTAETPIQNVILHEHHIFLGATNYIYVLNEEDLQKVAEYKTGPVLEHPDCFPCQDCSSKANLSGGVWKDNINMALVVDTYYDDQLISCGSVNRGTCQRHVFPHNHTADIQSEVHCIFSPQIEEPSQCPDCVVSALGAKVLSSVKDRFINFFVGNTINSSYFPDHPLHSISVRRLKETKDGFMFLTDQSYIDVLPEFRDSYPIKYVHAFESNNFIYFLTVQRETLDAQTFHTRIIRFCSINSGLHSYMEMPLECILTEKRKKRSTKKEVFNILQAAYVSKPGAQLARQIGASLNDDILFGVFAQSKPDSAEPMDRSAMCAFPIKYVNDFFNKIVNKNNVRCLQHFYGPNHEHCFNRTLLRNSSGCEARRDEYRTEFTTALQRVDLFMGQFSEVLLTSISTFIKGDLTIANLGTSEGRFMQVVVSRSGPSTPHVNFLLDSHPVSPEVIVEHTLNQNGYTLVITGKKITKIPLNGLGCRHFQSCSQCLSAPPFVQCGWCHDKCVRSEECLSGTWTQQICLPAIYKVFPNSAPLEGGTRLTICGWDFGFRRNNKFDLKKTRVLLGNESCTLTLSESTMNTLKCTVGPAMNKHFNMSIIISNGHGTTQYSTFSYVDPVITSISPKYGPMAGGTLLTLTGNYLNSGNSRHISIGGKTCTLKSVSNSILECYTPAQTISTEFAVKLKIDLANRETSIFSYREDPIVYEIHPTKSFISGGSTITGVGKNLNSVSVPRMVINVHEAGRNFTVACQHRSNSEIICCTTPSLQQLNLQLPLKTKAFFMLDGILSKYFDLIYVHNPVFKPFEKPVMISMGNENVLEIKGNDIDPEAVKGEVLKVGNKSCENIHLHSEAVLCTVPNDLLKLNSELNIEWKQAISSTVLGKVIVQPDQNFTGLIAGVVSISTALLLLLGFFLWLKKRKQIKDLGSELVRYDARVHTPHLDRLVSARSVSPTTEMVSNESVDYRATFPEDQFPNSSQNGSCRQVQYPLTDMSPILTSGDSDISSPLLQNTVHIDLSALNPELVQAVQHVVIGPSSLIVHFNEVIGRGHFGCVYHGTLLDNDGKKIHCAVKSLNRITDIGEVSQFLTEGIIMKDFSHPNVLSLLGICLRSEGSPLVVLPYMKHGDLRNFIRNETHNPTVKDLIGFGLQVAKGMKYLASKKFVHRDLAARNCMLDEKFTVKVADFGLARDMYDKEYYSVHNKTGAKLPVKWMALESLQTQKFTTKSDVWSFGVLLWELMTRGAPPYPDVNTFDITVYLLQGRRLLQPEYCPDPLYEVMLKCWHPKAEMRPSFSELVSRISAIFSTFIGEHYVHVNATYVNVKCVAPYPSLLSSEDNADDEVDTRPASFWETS
Serine/threonine-protein kinase RIO3 (Homo sapiens), sequence (O14730 whole entry): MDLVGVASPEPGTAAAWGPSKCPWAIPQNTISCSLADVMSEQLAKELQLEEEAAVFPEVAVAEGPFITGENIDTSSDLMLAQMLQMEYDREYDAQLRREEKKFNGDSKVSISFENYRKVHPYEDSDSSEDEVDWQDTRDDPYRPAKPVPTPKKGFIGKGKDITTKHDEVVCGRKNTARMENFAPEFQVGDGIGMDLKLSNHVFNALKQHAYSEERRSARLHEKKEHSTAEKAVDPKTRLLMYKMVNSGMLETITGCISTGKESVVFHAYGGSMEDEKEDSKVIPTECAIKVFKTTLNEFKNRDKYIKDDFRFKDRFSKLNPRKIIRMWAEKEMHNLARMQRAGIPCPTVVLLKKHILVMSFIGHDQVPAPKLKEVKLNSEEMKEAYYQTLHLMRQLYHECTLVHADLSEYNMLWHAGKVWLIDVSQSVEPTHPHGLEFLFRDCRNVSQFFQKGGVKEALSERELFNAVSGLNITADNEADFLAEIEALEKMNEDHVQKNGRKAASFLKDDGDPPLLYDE
Tyrosine-protein kinase ABL1 (Homo sapiens), P00519 [F317L], sequence (P00519 whole entry F317L): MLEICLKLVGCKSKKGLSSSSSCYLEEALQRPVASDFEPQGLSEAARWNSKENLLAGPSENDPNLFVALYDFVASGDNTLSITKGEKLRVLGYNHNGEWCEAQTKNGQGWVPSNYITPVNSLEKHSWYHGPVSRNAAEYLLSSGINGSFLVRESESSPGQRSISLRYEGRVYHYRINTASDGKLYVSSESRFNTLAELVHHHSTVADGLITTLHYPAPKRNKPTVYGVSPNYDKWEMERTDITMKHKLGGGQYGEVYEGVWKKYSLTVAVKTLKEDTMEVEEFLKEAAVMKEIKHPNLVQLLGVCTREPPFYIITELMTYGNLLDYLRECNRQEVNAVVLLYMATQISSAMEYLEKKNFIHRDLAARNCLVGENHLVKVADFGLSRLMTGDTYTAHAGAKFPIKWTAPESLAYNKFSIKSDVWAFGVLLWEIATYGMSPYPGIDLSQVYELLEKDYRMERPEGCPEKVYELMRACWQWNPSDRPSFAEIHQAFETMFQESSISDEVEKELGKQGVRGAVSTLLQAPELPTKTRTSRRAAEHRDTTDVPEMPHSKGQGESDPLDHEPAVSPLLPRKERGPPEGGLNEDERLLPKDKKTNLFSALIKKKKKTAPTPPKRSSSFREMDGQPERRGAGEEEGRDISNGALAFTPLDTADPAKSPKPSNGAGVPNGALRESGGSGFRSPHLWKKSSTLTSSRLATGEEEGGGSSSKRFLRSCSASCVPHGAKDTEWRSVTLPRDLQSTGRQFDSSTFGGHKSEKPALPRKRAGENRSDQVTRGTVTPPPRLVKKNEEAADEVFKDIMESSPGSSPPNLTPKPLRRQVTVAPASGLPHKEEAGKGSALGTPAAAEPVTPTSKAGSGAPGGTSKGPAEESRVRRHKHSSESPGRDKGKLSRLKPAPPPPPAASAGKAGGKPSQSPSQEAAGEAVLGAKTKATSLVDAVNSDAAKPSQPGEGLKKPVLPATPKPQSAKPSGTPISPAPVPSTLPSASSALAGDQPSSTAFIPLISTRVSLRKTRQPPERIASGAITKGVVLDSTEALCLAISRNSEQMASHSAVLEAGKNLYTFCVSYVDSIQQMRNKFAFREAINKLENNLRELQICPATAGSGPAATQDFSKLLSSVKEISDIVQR
Serine/threonine-protein kinase PknB (Mycobacterium tuberculosis), sequence (P9WI81 whole entry): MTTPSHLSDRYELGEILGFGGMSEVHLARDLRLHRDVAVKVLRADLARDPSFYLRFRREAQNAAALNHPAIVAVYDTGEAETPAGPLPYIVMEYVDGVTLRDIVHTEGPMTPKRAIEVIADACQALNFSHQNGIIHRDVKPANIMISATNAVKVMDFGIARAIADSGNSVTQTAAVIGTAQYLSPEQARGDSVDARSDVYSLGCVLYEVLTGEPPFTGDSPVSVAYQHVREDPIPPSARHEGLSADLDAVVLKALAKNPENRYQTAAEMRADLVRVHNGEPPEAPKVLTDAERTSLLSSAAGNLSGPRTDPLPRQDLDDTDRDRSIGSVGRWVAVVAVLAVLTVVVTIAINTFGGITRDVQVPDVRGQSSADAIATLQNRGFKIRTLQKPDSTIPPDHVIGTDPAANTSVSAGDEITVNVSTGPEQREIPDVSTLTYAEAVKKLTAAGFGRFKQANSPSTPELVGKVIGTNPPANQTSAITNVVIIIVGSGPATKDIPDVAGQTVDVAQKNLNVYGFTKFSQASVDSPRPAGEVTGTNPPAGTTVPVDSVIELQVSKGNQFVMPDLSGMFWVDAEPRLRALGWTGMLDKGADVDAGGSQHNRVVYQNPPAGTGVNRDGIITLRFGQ

`CN(C)C(=O)Cn1cc(-c2nc(C3(c4ccc(-c5cnc(N)nc5)cc4)CC3)no2)cn1` [BI 0153]: the residual activity was 55% in experiment [1]; 49% in experiment [2]; 100% in experiment [3]; 93% in experiment [4]; 96% in experiment [5]; 73% in experiment [6]. Besides, the residual activity in experiment [7] was 85%; in experiment [8], 89%; in [9], 89%; in [10] it was 70%.
Take `CN(C)C(=O)Cn1cc(-c2nc([C@@](C)(c3ccc(-c4cnc(N)nc4)cc3)C3CC3)no2)cn1` [BI 665915]: the residual activity in experiment [1] is 66%; in experiment [2], 72%; in [3] it was 99%; in experiment [4], 94%; in [5], 95%; in experiment [6] it was 100%. Further, the residual activity in [7] is 100%; in experiment [8] it was 100%; in experiment [9] it was 100%; in experiment [10], 87%.
